These results are taken from article PMC5233616, “Structural and functional analyses of human DDX41 DEAD domain” (Protein & Cell, 2016).

The structures appear in SMILES notation.

Experiment [1] concerns the target T1, hDDX41 DEAD domain (Homo sapiens, UniProt Q9UJV9).
T1 construct: gene DDX41; isolated DEAD domain (domain 1; motifs Q to III); monomer; full length is 1-622
Briefly: isothermal titration calorimetry. The settings on record: read-out: binding affinity.

Experiment [2] addresses T1, hDDX41 DEAD domain. The experiment is described as follows: thermal shift assay. Format: binding. The settings on record: unliganded Tm 41 °C.

T1 sequence (Q9UJV9 155-407 limits assumed): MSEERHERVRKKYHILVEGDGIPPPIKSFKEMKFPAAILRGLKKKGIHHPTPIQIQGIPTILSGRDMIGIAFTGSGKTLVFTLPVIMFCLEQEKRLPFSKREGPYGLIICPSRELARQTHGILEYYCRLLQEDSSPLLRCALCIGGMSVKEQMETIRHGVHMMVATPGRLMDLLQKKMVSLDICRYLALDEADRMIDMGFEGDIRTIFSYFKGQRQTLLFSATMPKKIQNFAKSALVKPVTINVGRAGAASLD

As to `Nc1ncnc2c1ncn2[C@@H]1O[C@H](COP(=O)(O)OP(=O)(O)O)[C@@H](O)[C@H]1O` [ADP], the Kd at hDDX41 DEAD domain [1] came out at 31 µM. For the same compound, the Tm increase on hDDX41 DEAD domain [2] was found to be 2.2 °C.

As to `Nc1ncnc2c1ncn2[C@@H]1O[C@H](COP(=O)(O)O)[C@@H](O)[C@H]1O` [AMP], the Kd at hDDX41 DEAD domain [1] was found to be 61 µM. Moreover, the Tm increase at hDDX41 DEAD domain [2] was 3.9 °C.
